Data published in patent US20260364168A1, “USE OF PROTEIN KINASE C (PKC) ACTIVATING COMPOUNDS AS AN ADJUVANT” (priority 2022, published 2026).
Read-outs that look alike come from different tables or passages of the source.

System: human PBMC cells
Assay: cytokine/chemokine gene expression (TaqMan) in human PBMC
Settings: Homo sapiens, PBMC, 4 h
Method: Materials and methods: 100 million frozen human PBMC cells were purchased from Allcells (100 million/vial). The cells were thawed and recovered for one day before 1.5-1.8 million cells in 900 μl RPMI1640 with 10% heat-inactivated FBS were seeded in each well of 24-well plates. Various compounds in DMSO stock (500×) were diluted 50-fold with the same media to make 10× compound stock for most compounds. 1 μL of 5 mg/mL PMA was diluted to 99 μL of the media to make 50 μg/mL PMA. For PMA with ionomycin treatment condition, 1.5 μL of 50 μg/mL PMA and 3 μL of 500 μg/mL ionomycin were added to 145.5 μL of the media to make 10× compound stock. Sources of the compounds are as follows: PMA from Abcam (Abcam #ab120297); Ionomycin from Sigma (Sigma #I0634); Resiquimod from Sellect Chem. (Selleckchem #S8133); and LPS from Sigma (Sigma #L6143).
Each treatment condition was performed in duplicates. After treatment, mRNA was extracted from cells and samples from duplicates were combined for TaqMan gene expression assays (ThermoFisher) in triplicates. Expression of 19 genes (IL-1β, IL-2, IL-4, IL-6, IL-8, IL-10, IL-13, IL-18, IL-12p70/IL-12A, IL-12p40/IL-12B, IFN-α, IFN-γ, GM-CSF/CSF2, CCL2/MCP-1, MIP1a/CCL3, TNF-α, MX1, OAS1, ISG15) along with two housekeeping gene controls, 18S and GAPDH, was determined. Target gene expression in each sample was determined by relative quantification (RQ) using the comparative Ct (ΔΔCT) method. This method measures the Ct difference (ΔCT) between target gene and the housekeeping genes (18S & GAPDH), then compares the ΔCT values of treated samples to DMSO-treated control samples. The mean ΔCT value of the DMSO-treated control from two independent DMSO-treated control samples was used. The relative expression level of target gene was calculated by using the equation:
relative expression=2^−ΔΔCT

## CC1=C[C@H]2[C@@]3(O)[C@H](C)C[C@]4(OC(=O)[C@@H](N)[C@]56C[C@H]7C[C@H](C[C@H](C7)C5)C6)[C@H]([C@@H]3C=C(CO)C[C@]2(O)C1=O)C4(C)C
read-out: CCL2 gene relative expression, 0.01 μM, 4 h, vs DMSO
  fold induction at 0.01 µM: 5.58
read-out: CCL2 gene relative expression, 0.03 μM, 4 h, vs DMSO
  fold induction at 0.03 µM: 3.59
read-out: CCL2 gene relative expression, 0.10 μM, 4 h, vs DMSO
  fold induction at 0.1 µM: 0.38
read-out: GM-CSF gene relative expression, 0.01 μM, 4 h, vs DMSO
  fold induction at 0.01 µM: 1.59
read-out: GM-CSF gene relative expression, 0.03 μM, 4 h, vs DMSO
  fold induction at 0.03 µM: 8.38
read-out: GM-CSF gene relative expression, 0.10 μM, 4 h, vs DMSO
  fold induction at 0.1 µM: 16.1
read-out: IFN-α gene relative expression, 0.01 μM, 4 h, vs DMSO
  fold induction at 0.01 µM: 0.78
read-out: IFN-α gene relative expression, 0.03 μM, 4 h, vs DMSO
  fold induction at 0.03 µM: 0.46
read-out: IFN-α gene relative expression, 0.10 μM, 4 h, vs DMSO
  fold induction at 0.1 µM: 0.31
read-out: IFNγ gene relative expression, 0.01 μM, 4 h, vs DMSO
  fold induction at 0.01 µM: 1.69
read-out: IFNγ gene relative expression, 0.03 μM, 4 h, vs DMSO
  fold induction at 0.03 µM: 3.82
read-out: IFNγ gene relative expression, 0.10 μM, 4 h, vs DMSO
  fold induction at 0.1 µM: 18.1
read-out: IL-1β gene relative expression, 0.01 μM, 4 h, vs DMSO
  fold induction at 0.01 µM: 0.59
read-out: IL-1β gene relative expression, 0.03 μM, 4 h, vs DMSO
  fold induction at 0.03 µM: 2.26
read-out: IL-1β gene relative expression, 0.10 μM, 4 h, vs DMSO
  fold induction at 0.1 µM: 3
read-out: IL-2 gene relative expression, 0.01 μM, 4 h, vs DMSO
  fold induction at 0.01 µM: 3.06
read-out: IL-2 gene relative expression, 0.03 μM, 4 h, vs DMSO
  fold induction at 0.03 µM: 7.78
read-out: IL-2 gene relative expression, 0.10 μM, 4 h, vs DMSO
  fold induction at 0.1 µM: 3.29
read-out: IL-4 gene relative expression, 0.01 μM, 4 h, vs DMSO
  fold induction at 0.01 µM: 0.84
read-out: IL-4 gene relative expression, 0.03 μM, 4 h, vs DMSO
  fold induction at 0.03 µM: 2.54
read-out: IL-4 gene relative expression, 0.10 μM, 4 h, vs DMSO
  fold induction at 0.1 µM: 2.77
read-out: IL-6 gene relative expression, 0.01 μM, 4 h, vs DMSO
  fold induction at 0.01 µM: 1.17
read-out: IL-6 gene relative expression, 0.03 μM, 4 h, vs DMSO
  fold induction at 0.03 µM: 0.86
read-out: IL-6 gene relative expression, 0.10 μM, 4 h, vs DMSO
  fold induction at 0.1 µM: 6.72
read-out: IL-8 gene relative expression, 0.01 μM, 4 h, vs DMSO
  fold induction at 0.01 µM: 0.71
read-out: IL-8 gene relative expression, 0.03 μM, 4 h, vs DMSO
  fold induction at 0.03 µM: 0.54
read-out: IL-8 gene relative expression, 0.10 μM, 4 h, vs DMSO
  fold induction at 0.1 µM: 0.6
read-out: IL-10 gene relative expression, 0.01 μM, 4 h, vs DMSO
  fold induction at 0.01 µM: 1.12
read-out: IL-10 gene relative expression, 0.03 μM, 4 h, vs DMSO
  fold induction at 0.03 µM: 0.41
read-out: IL-10 gene relative expression, 0.10 μM, 4 h, vs DMSO
  fold induction at 0.1 µM: 0.09
read-out: IL-12p40 gene relative expression, 0.01 μM, 4 h, vs DMSO
  fold induction at 0.01 µM: 0.89
read-out: IL-12p40 gene relative expression, 0.03 μM, 4 h, vs DMSO
  fold induction at 0.03 µM: 0.32
read-out: IL-12p40 gene relative expression, 0.10 μM, 4 h, vs DMSO
  fold induction at 0.1 µM: 0.22
read-out: IL-12p70 gene relative expression, 0.01 μM, 4 h, vs DMSO
  fold induction at 0.01 µM: 1.03
read-out: IL-12p70 gene relative expression, 0.03 μM, 4 h, vs DMSO
  fold induction at 0.03 µM: 0.87
read-out: IL-12p70 gene relative expression, 0.10 μM, 4 h, vs DMSO
  fold induction at 0.1 µM: 0.76
read-out: IL-13 gene relative expression, 0.01 μM, 4 h, vs DMSO
  fold induction at 0.01 µM: 3.1
read-out: IL-13 gene relative expression, 0.03 μM, 4 h, vs DMSO
  fold induction at 0.03 µM: 52.6
read-out: IL-13 gene relative expression, 0.10 μM, 4 h, vs DMSO
  fold induction at 0.1 µM: 101
read-out: IL-18 gene relative expression, 0.01 μM, 4 h, vs DMSO
  fold induction at 0.01 µM: 0.26
read-out: IL-18 gene relative expression, 0.03 μM, 4 h, vs DMSO
  fold induction at 0.03 µM: 0.06
read-out: IL-18 gene relative expression, 0.10 μM, 4 h, vs DMSO
  fold induction at 0.1 µM: 0.06
read-out: ISG15 gene relative expression, 0.01 μM, 4 h, vs DMSO
  fold induction at 0.01 µM: 1.01
read-out: ISG15 gene relative expression, 0.03 μM, 4 h, vs DMSO
  fold induction at 0.03 µM: 1.33
read-out: ISG15 gene relative expression, 0.10 μM, 4 h, vs DMSO
  fold induction at 0.1 µM: 1.54
read-out: MIP1a (CCL3) gene relative expression, 0.01 μM, 4 h, vs DMSO
  fold induction at 0.01 µM: 1.65
read-out: MIP1a (CCL3) gene relative expression, 0.03 μM, 4 h, vs DMSO
  fold induction at 0.03 µM: 2.82
read-out: MIP1a (CCL3) gene relative expression, 0.10 μM, 4 h, vs DMSO
  fold induction at 0.1 µM: 5.73
read-out: MX1 gene relative expression, 0.01 μM, 4 h, vs DMSO
  fold induction at 0.01 µM: 0.84
read-out: MX1 gene relative expression, 0.03 μM, 4 h, vs DMSO
  fold induction at 0.03 µM: 1.01
read-out: MX1 gene relative expression, 0.10 μM, 4 h, vs DMSO
  fold induction at 0.1 µM: 0.99
read-out: OAS1 gene relative expression, 0.01 μM, 4 h, vs DMSO
  fold induction at 0.01 µM: 0.74
read-out: OAS1 gene relative expression, 0.03 μM, 4 h, vs DMSO
  fold induction at 0.03 µM: 0.78
read-out: OAS1 gene relative expression, 0.10 μM, 4 h, vs DMSO
  fold induction at 0.1 µM: 0.69
read-out: TNF-α gene relative expression, 0.01 μM, 4 h, vs DMSO
  fold induction at 0.01 µM: 2.39
read-out: TNF-α gene relative expression, 0.03 μM, 4 h, vs DMSO
  fold induction at 0.03 µM: 4.48
read-out: TNF-α gene relative expression, 0.10 μM, 4 h, vs DMSO
  fold induction at 0.1 µM: 6.25
